Measured values as given in patent publication US20250051347A1, “BIFUNCTIONAL CHIMERIC HETEROCYCLIC COMPOUND AND USE THEREOF AS ANDROGEN RECEPTOR DEGRADER” (Hinova Pharmaceuticals, Inc., priority 2021, published 2025).

How the values were obtained:
[1] = target: T1, androgen receptor (AR) splicing variant AR-v7 (Homo sapiens, UniProt P10275); assay: Degradation activity on androgen receptor splicing variant AR-v7 in 22RV1 cells (ELISA); assay type: cell-based; conditions: AR-v7 degradation in 22RV1 cells, 48 h, class symbols
T1 construct: The degradation activity of compounds on AR-v7 in 22RV1 cells; host or cells: 22RV1 cells
T1 sequence (P10275 1-644 isoform P10275-3): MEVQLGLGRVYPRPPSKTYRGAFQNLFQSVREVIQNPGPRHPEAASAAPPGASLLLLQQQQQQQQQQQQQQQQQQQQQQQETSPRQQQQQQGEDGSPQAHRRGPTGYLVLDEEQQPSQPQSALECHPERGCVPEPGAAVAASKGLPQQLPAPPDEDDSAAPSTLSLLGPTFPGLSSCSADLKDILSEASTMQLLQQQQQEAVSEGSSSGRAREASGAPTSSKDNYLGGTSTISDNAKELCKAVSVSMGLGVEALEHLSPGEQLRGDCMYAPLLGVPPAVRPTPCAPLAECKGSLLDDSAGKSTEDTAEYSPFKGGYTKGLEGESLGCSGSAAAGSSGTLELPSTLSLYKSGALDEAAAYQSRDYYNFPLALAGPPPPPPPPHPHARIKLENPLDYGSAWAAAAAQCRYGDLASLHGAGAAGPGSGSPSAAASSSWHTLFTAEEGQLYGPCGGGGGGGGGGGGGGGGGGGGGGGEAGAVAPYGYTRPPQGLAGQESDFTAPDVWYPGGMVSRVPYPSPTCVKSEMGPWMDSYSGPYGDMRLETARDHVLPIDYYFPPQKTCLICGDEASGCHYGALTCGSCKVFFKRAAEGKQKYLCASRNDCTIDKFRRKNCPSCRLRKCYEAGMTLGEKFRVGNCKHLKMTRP

22RV1 cells = conditions: Homo sapiens, 22Rv1, 144 h, read-out: 22RV1 IC50 (nM), 22RV1 cells, 6 days culture, CCK-8, OD 450 nm
[2] = Pharmacokinetics in mice (plasma exposure after oral administration); assay type: in vivo; conditions: mouse, ICR mice, oral (i.g.) 3 mg/kg, read-out: After oral administration of 3 mg/kg, mouse plasma exposure AUCinf

DC50 [1] [µM]	IC50 (22RV1 cells) [nM]	AUC(0-inf) [2] [ng·h/mL]	SMILES
< 0.01	4	1000 to 5000	CC1(N)CN(c2nccc(COc3ccc(C(C)(C)c4ccc(O[C@H]5C[C@H](Nc6ccc7c(c6)C(=O)N(C6CCC(=O)NC6=O)C7=O)C5)cc4)cc3)n2)C1 (stereo partly drawn) [Example 275]
< 0.01	8	5000 to 30000	CC(C)(c1ccc(Oc2ncc(-n3nccn3)cn2)cc1)c1ccc(O[C@H]2C[C@H](Nc3ccc4c(c3)C(=O)N(C3CCC(=O)NC3=O)C4=O)C2)cc1 (stereo partly drawn) [Example 321]
< 0.01	3	5000 to 30000	CC(=O)c1nccc(COc2ccc(C(C)(C)c3ccc(O[C@H]4C[C@H](Nc5ccc6c(c5)C(=O)N(C5CCC(=O)NC5=O)C6=O)C4)cc3)cc2)n1 (stereo partly drawn) [Example 110, 5-(((trans)-3-(4-(2-(4-((2-acetylpyrimidin-4-yl)methoxy)phenyl)propan-2-yl)phenoxy)cyclobutyl)amino)-2-(2,6-dioxopiperidin-3-yl)isoindolin-1,3-dione]
< 0.01	9	1000 to 5000	CC1(N)CN(c2nccc(COc3ccc(C(C)(C)c4ccc(O[C@H]5C[C@@H](Nc6ccc7c(c6)C(=O)N(C6CCC(=O)NC6=O)C7=O)C5)cc4)cc3)n2)C1 (stereo partly drawn) [Example 268]
< 0.01	10	1000 to 5000	CC(C)(c1ccc(Oc2cc(F)cnc2-n2ccnn2)cc1)c1ccc(O[C@H]2C[C@H](Nc3ccc4c(c3)C(=O)N(C3CCC(=O)NC3=O)C4=O)C2)cc1 (stereo partly drawn) [Example 516]
0.011 to 0.1	8.6	5000 to 30000	CC(C)(c1ccc(OCc2ccnc(-n3nccn3)n2)cc1)c1ccc(O[C@H]2C[C@H](Nc3ccc4c(c3)C(=O)N(C3CCC(=O)NC3=O)C4=O)C2)cc1 (stereo partly drawn) [Example 231]
0.011 to 0.1	5	5000 to 30000	Cc1nc(-c2ccc(Oc3ccc(C(C)(C)c4ccc(O[C@H]5C[C@H](Nc6ccc7c(c6)C(=O)N(C6CCC(=O)NC6=O)C7=O)C5)cc4)cc3)nn2)no1 (stereo partly drawn) [Example 328]
< 0.01	12	5000 to 30000	CN(C)[C@@H]1CCN(c2nccc(COc3ccc(C(C)(C)c4ccc(O[C@H]5C[C@@H](Nc6ccc7c(c6)C(=O)N(C6CCC(=O)NC6=O)C7=O)C5)cc4)cc3)n2)C1 (stereo partly drawn) [Example 456]
< 0.01	6	5000 to 30000	Cc1noc(-c2ncc(Oc3ccc(C(C)(C)c4ccc(O[C@H]5C[C@H](Nc6ccc7c(c6)C(=O)N(C6CCC(=O)NC6=O)C7=O)C5)cc4)cc3)cn2)n1 (stereo partly drawn) [Example 254]
< 0.01	7	1000 to 5000	Cc1noc(-c2nccc(Oc3ccc(C(C)(C)c4ccc(O[C@H]5C[C@H](Nc6ccc7c(c6)C(=O)N(C6CCC(=O)NC6=O)C7=O)C5)cc4)cc3)n2)n1 (stereo partly drawn) [Example 426]
< 0.01	2	5000 to 30000	CC(=O)c1ncc(Oc2ccc(C(C)(C)c3ccc(O[C@H]4C[C@H](Nc5ccc6c(c5)C(=O)N(C5CCC(=O)NC5=O)C6=O)C4)cc3)cc2)cn1 (stereo partly drawn) [Example 119, 5-(((trans)-3-(4-(2-(4-((2-acetylpyrimidin-5-yl)oxy)phenyl)propan-2-yl)phenoxy)cyclobutyl)amino)-2-(2,6-dioxopiperidin-3-yl) isoindolin-1,3-dione]
< 0.01	4	1000 to 5000	CC(C)(c1ccc(Oc2cnc(-n3ccnn3)cn2)cc1)c1ccc(O[C@H]2C[C@H](Nc3ccc4c(c3)C(=O)N(C3CCC(=O)NC3=O)C4=O)C2)cc1 (stereo partly drawn) [Example 584]

The remaining lines, values behind:

SMILES	DC50 [1] [µM]	IC50 (22RV1 cells) [nM]	AUC(0-inf) [2] [ng·h/mL]
O=C1CCC(N2C(=O)c3ccc(N[C@H]4C[C@H](Oc5ccc(C6(c7ccc(OCc8ccnc(N9CC%10(COC%10)C9)n8)cc7)CCC6)cc5)C4)cc3C2=O)C(=O)N1 (stereo partly drawn) [Example 358, 5-(((1r,3r)-3-(4-(1-(4-((2-(2-oxa-6-azaspiro[3.3]heptane-6-yl)pyrimidin-4-yl)methoxy)phenyl)cyclobutyl)phenoxy)cyclobutyl)amino)-2-(2,6-dioxopiperidin-3-yl)isoindolin-1,3-dione]	< 0.01	9	1000 to 5000
C=CC(c1ccc(Oc2cnc(-n3nccn3)nc2)cc1)c1ccc(O[C@H]2C[C@H](Nc3ccc4c(c3)C(=O)N(C3CCC(=O)NC3=O)C4=O)C2)cc1 (stereo partly drawn) [Example 372, 5-(((1r,3r)-3-(4-(1-(4-((2-(2H-1,2,3-triazole-2-yl)pyrimidin-5-yl)oxy)phenyl)allyl)phenoxy)cyclobutyl)amino)-2-(2,6-dioxopiperidin-3-yl)isoindolin-1,3-dione]	< 0.01	8	5000 to 30000
O=C1CCC(N2C(=O)c3ccc(N[C@H]4C[C@@H](Oc5ccc(C6(c7ccc(OCc8ccnc(N9CC%10(COC%10)C9)n8)cc7)CCC6)cc5)C4)cc3C2=O)C(=O)N1 (stereo partly drawn) [Example 359, 5-(((1s,3s)-3-(4-(1-(4-((2-(2-oxa-6-azaspiro[3.3]heptane-6-yl)pyrimidin-4-yl)methoxy)phenyl)cyclobutyl)phenoxy)cyclobutyl)amino)-2-(2,6-dioxopiperidin-3-yl)isoindolin-1,3-dione]	< 0.01	6	1000 to 5000
CC(O)c1ncc(Oc2ccc(C(C)(C)c3ccc(O[C@H]4C[C@H](Nc5ccc6c(c5)C(=O)N(C5CCC(=O)NC5=O)C6=O)C4)cn3)cc2)cn1 (stereo partly drawn) [Example 223]	< 0.01	0.5	1000 to 5000
CC(C)(c1ccc(OCc2ccnc(N3CC4(COC4)C3)n2)cc1)c1ccc(O[C@H]2C[C@@H](Nc3ccc4c(c3)C(=O)N(C3CCC(=O)NC3=O)C4=O)C2)cc1 (stereo partly drawn) [Example 76, 5-(((1s,3s)-3-(4-(2-(4-((2-(2-oxa-6-azaspiro[3.3]heptane-6-yl)pyrimidin-4-yl)methoxy)phenyl)propan-2-yl)phenoxy)cyclobutyl)amino)-2-(2,6-dioxopiperidin-3-yl)isoindolin-1,3-dione]	< 0.01	11	1000 to 5000
CC(O)c1ncc(Oc2ccc(C3(c4ccc(O[C@H]5C[C@H](Nc6ccc7c(c6)C(=O)N(C6CCC(=O)NC6=O)C7=O)C5)cc4)CC3)cc2)cn1 (stereo partly drawn) [Example 377, 2-(2,6-dioxopiperidin-3-yl)-5-(((1r,3r)-3-(4-(1-(4-((2-(1-hydroxylethyl)pyrimidin-5-yl)oxy)phenyl)cyclopropyl)phenoxy)cyclobutyl)amino)isoindolin-1,3-dione]	< 0.01	12	5000 to 30000
CC(C)(c1ccc(OCc2ccnc(N3CC4(CCO4)C3)n2)cc1)c1ccc(O[C@H]2C[C@@H](Nc3ccc4c(c3)C(=O)N(C3CCC(=O)NC3=O)C4=O)C2)cc1 (stereo partly drawn) [Example 196]	< 0.01	10	1000 to 5000
CCC(CC)(c1ccc(Oc2ccc(C(C)O)nn2)cc1)c1ccc(O[C@H]2C[C@H](Nc3ccc4c(c3)C(=O)N(C3CCC(=O)NC3=O)C4=O)C2)cc1 (stereo partly drawn) [Example 175, 2-(2,6-dioxopiperidin-3-yl)-5-(((1r,3r)-3-(4-(3-(4-((6-(1-hydroxylethyl)pyridazine-3-yl)oxy)phenyl)pentan-3-yl)phenoxy)cyclobutyl)amino)isoindolin-1,3-dione]	< 0.01	4	1000 to 5000
O=C1CCC(N2C(=O)c3ccc(N[C@H]4C[C@H](Oc5ccc(S(=O)(=O)c6ccc(OCc7ccnc(N8CC9(COC9)C8)n7)cc6)cc5)C4)cc3C2=O)C(=O)N1 (stereo partly drawn) [Example 362, 5-(((1r,3r)-3-(4-((4-((2-(2-oxa-6-azaspiro[3.3]heptane-6-yl)pyrimidin-4-yl)methoxy)phenyl)sulfonyl)phenoxy)cyclobutyl)amino)-2-(2,6-dioxopiperidin-3-yl)isoindolin-1,3-dione]	< 0.01	20	100 to 1000
Cc1nc(-c2ccc(Oc3ccc(C4(c5ccc(O[C@H]6C[C@H](Nc7ccc8c(c7)C(=O)N(C7CCC(=O)NC7=O)C8=O)C6)cc5)CCCC4)cc3)nn2)no1 (stereo partly drawn) [Example 338]	< 0.01	2	1000 to 5000
Cc1nnc(-c2ncc(Oc3ccc(C4(c5ccc(O[C@H]6C[C@H](Nc7ccc8c(c7)C(=O)N(C7CCC(=O)NC7=O)C8=O)C6)cc5)CCCC4)cc3)cn2)o1 (stereo partly drawn) [Example 483]	< 0.01	2	5000 to 30000
CC(C)(c1ccc(Oc2cnc(N3CC4(COC4)C3)nc2)cc1)c1ccc(O[C@H]2C[C@H](Nc3ccc4c(c3)C(=O)N(C3CCC(=O)NC3=O)C4=O)C2)cc1 (stereo partly drawn) [Example 248]	< 0.01	23	1000 to 5000
CC(C)(c1ccc(OCc2ccnc(NC3CCN(CCCCO)CC3)n2)cc1)c1ccc(O[C@H]2C[C@H](Nc3ccc4c(c3)C(=O)N(C3CCC(=O)NC3=O)C4=O)C2)cc1 (stereo partly drawn) [Example 239]	< 0.01	3	100 to 1000
